Measured values as given in US20240252488A1 (KOREA RESEARCH INSTITUTE OF CHEMICAL TECHNOLOGY, priority 2020, published 2024).
pKd: −log10 of the molar value.

Tests used:
FADD−/− Jurkat cells = test: Necroptosis inhibition assay, TNF-α-induced necroptosis (CellTiter-Glo 2.0); assay type: cell-based, human; details: TNF-α 15 ng/mL; for Necroptosis inhibition assay (Rescue %) 1 μM: compound 1 μM; for Necroptosis inhibition assay (Rescue %) 10 μM: compound 10 μM
Outline: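 Compound is added to cells at final concentrations of 0.1, 1 and 10 μM and left 30 minutes at room temperature. Necroptosis is induced with 15 ng/mL TNF-α, culture continues 20 to 24 hours at 37° C, and ATP-based luminescence reports viability.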

MLKL [1] = target: T1, MLKL (Homo sapiens, UniProt Q8NB16); test: MLKL degradation assay in HepG2 cell line (western blot); assay type: cell-based; design: endogenous in cells; host or cells: HepG2 or HaCaT; details: cell line not given; for Degradation assay (Degradation %) 10 μM: compound 10 μM; for Degradation assay (Degradation %) 1 μM: compound 1 μM
T1 sequence (Q8NB16 1-471): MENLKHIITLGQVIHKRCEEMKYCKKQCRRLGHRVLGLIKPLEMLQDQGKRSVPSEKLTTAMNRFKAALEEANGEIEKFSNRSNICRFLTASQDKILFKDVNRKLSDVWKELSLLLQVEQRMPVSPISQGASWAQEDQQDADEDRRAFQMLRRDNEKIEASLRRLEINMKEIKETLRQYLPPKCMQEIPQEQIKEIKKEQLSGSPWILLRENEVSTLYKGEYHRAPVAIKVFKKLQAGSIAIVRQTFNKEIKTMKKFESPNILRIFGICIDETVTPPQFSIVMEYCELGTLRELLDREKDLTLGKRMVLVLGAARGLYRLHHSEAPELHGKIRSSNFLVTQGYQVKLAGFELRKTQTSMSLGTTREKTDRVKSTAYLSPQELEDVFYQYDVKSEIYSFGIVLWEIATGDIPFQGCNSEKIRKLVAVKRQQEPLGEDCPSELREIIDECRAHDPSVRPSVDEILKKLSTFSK
Outline: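 Chemiluminescent western blot signal reports remaining MLKL protein in HepG2 cells after 20-24 h treatment with compound at a final 1 or 10 μM. Equal protein (10-15 μg, BCA) is loaded per lane.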

MLKL [2] = target: T1, MLKL; test: Measurement of binding affinity with MLKL receptor (competitive binding assay, Kd); design: made in house; host or cells: HEK 293 cell line (T7 phage in E. coli BL21-derived host is also described)
Outline: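 Kd comes from a bead-based competition format: compound-dependent loss of DNA-tagged, HEK 293-expressed MLKL capture, measured as eluate kinase by qPCR. Final DMSO is 0.9%.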

| Degradation assay (Degradation %) 10 μM (MLKL [1]) | pKd (MLKL [2]) | Degradation assay (Degradation %) 1 μM (MLKL [1]) | Compound | Necroptosis inhibition assay (Rescue %) 1 μM (FADD−/− Jurkat cells) | Necroptosis inhibition assay (Rescue %) 10 μM (FADD−/− Jurkat cells) | Necroptosis inhibition assay (Rescue %) 1 μM (FADD−/− Jurkat cells; FADD−/− Jurkat cells) | Necroptosis inhibition assay (Rescue %) 10 μM (FADD−/− Jurkat cells; FADD−/− Jurkat cells) |
| --- | --- | --- | --- | --- | --- | --- | --- |
| 11.22% | 8.21 | – | Nc1ncc(-c2cnn(C3CCN(C(=O)COCCOCCNC(=O)C4CN(c5ccc6c(c5)C(=O)N(C5CCC(=O)NC5=O)C6=O)C4)CC3)c2)nc1C(=O)O[C@@H](C(=O)Nc1ccc(F)cc1)c1ccccc1 (stereo partly drawn) [TDH-193, (R)-2-((4-fluorophenyl)amino)-2-oxo-1-phenylethyl 3-amino-6-(1-(1-(2-(2-(2-(1-(2-(2,6-dioxopiperidin-3-yl)-1,3-dioxoisoindolin-5-yl)azetidine-3-carboxamido)ethoxy)ethoxy)acetyl)piperidin-4-yl)-1H-pyrazol-4-yl)pyrazine-2-carboxylate] | 43.97% | 40.55% | – | – |
| 86.6% | 8.85 | 87.78% | Nc1ncc(-c2cnn(C3CCN(CCOC4CCN(C(=O)COc5ccc6nnn(C7CCC(=O)NC7=O)c(=O)c6c5)CC4)CC3)c2)nc1C(=O)O[C@@H](C(=O)Nc1ccc(F)cc1)c1ccccc1 (stereo partly drawn) [TDH-373, (R)-2-((4-fluorophenyl)amino)-2-oxo-1-phenylethyl 3-amino-6-(1-(1-(2-((1-(2-((3-(2,6-dioxopiperidin-3-yl)-4-oxo-3,4-dihydrobenzo[d][1,2,3]triazin-6-yl)oxy)acetyl)piperidin-4-yl)oxy)ethyl)piperidin-4-yl)-1H-pyrazol-4-yl)pyrazine-2-carboxylate] | 62.68% | 40.09% | – | – |
| 79.19% | 8.26 | 59.83% | Nc1ncc(-c2cnn(C3CCN(C(=O)CC4CCN(C(=O)COc5ccc6c(c5)C(=O)N(C5CCC(=O)NC5=O)C6=O)CC4)CC3)c2)nc1C(=O)O[C@@H](C(=O)Nc1ccc(F)cc1)c1ccccc1 (stereo partly drawn) [TDH-338, (R)-2-((4-fluorophenyl)amino)-2-oxo-1-phenylethyl 3-amino-6-(1-(1-(2-(1-(2-((2-(2,6-dioxopiperidin-3-yl)-1,3-dioxoisoindolin-5-yl)oxy)acetyl)piperidin-4-yl)acetyl)piperidin-4-yl)-1H-pyrazol-4-yl)pyrazine-2-carboxylate] | 50.8% | 50.29% | – | – |
| 8.02% | 7.92 | – | Nc1ncc(-c2cnn(C3CCN(C(=O)CCCCCNC(=O)CNc4cccc5c4C(=O)N(C4CCC(=O)NC4=O)C5=O)CC3)c2)nc1C(=O)O[C@@H](C(=O)Nc1ccc(F)cc1)c1ccccc1 (stereo partly drawn) [TDH-124, (R)-2-((4-fluorophenyl)amino)-2-oxo-1-phenylethyl 3-amino-6-(1-(1-(6-(2-((2-(2,6-dioxopiperidin-3-yl)-1,3-dioxoisoindolin-4-yl)amino)acetamido)hexanoyl)piperidin-4-yl)-1H-pyrazol-4-yl)pyrazine-2-carboxylate] | 21.88% | 27.22% | – | – |
| 39.14% | 8.21 | 19.32% | Nc1ncc(-c2cnn([C@@H]3CCN(CCOCCOCCNC(=O)COc4ccc5c(c4)C(=O)N(C4CCC(=O)NC4=O)C5=O)C3)c2)nc1C(=O)OC(C(=O)Nc1ccc(F)cc1)c1ccccc1 (stereo partly drawn) [TDH-270, 2-((4-fluorophenyl)amino)-2-oxo-1-phenylethyl 3-amino-6-(1-((3R)-1-(2-(2-(2-(2-((2-(2,6-dioxopiperidin-3-yl)-1,3-dioxoisoindolin-5-yl)oxy)acetamido)ethoxy)ethoxy)ethyl)pyrrolidin-3-yl)-1H-pyrazol-4-yl)pyrazine-2-carboxylate] | 38.56% | 99.37% | – | – |
| 51.38% | 8.00 | 74.57% | Nc1ncc(-c2cnn(C3CCN(C(=O)CCC4CCN(c5ccc6c(c5)C(=O)N(C5CCC(=O)NC5=O)C6=O)CC4)CC3)c2)nc1C(=O)O[C@@H](C(=O)Nc1ccc(F)cc1)c1ccccc1 (stereo partly drawn) [TDH-420, (R)-2-((4-fluorophenyl)amino)-2-oxo-1-phenylethyl 3-amino-6-(1-(1-(3-(1-(2-(2,6-dioxopiperidin-3-yl)-1,3-dioxoisoindolin-5-yl)piperidin-4-yl)propanoyl)piperidin-4-yl)-1H-pyrazol-4-yl)pyrazine-2-carboxylate] | – | – | 8.39% | 2.00% |
| 83.53% | 8.04 | 41.81% | Nc1ncc(-c2cnn(C3CCN(CCOCCOCCOCCNC(=O)C4CCN(c5ccc6c(c5)C(=O)N(C5CCC(=O)NC5=O)C6=O)CC4)CC3)c2)nc1C(=O)O[C@@H](C(=O)Nc1ccc(F)cc1)c1ccccc1 (stereo partly drawn) [TDH-140, (R)-2-((4-fluorophenyl)amino)-2-oxo-1-phenylethyl 3-amino-6-(1-(1-(1-(1-(2-(2,6-dioxopiperidin-3-yl)-1,3-dioxoisoindolin-5-yl)piperidin-4-yl)-1-oxo-5,8,11-trioxa-2-azatridecan-13-yl)piperidin-4-yl)-1H-pyrazol-4-yl)pyrazine-2-carboxylate] | 21.32% | 81.41% | – | – |
| 65.94% | 8.43 | 75.04% | Nc1ncc(-c2cnn([C@@H]3CCN(CC4CCN(C(=O)COc5cccc6c5C(=O)N(C5CCC(=O)NC5=O)C6=O)CC4)C3)c2)nc1C(=O)OC(C(=O)Nc1ccc(F)cc1)c1ccccc1 (stereo partly drawn) [TDH-287, 2-((4-fluorophenyl)amino)-2-oxo-1-phenylethyl 3-amino-6-(1-((3R)-1-((1-(2-((2-(2,6-dioxopiperidin-3-yl)-1,3-dioxoisoindolin-4-yl)oxy)acetyl)piperidin-4-yl)methyl)pyrrolidin-3-yl)-1H-pyrazol-4-yl)pyrazine-2-carboxylate] | 71.05% | 72.7% | – | – |
| 86.81% | 8.28 | 86.78% | Nc1ncc(-c2cnn(C3CCN(C(=O)CCC4CCN(C(=O)CNc5cccc6c5C(=O)N(C5CCC(=O)NC5=O)C6=O)CC4)CC3)c2)nc1C(=O)O[C@@H](C(=O)Nc1ccc(F)cc1)c1ccccc1 (stereo partly drawn) [TDH-421, (R)-2-((4-fluorophenyl)amino)-2-oxo-1-phenylethyl 3-amino-6-(1-(1-(3-(1-((2-(2,6-dioxopiperidin-3-yl)-1,3-dioxoisoindolin-4-yl)glycyl)piperidin-4-yl)propanoyl)piperidin-4-yl)-1H-pyrazol-4-yl)pyrazine-2-carboxylate] | – | – | 37.14% | 35.74% |
| 14.41% | 9.77 | 60.39% | COc1ccc(C(=O)N2CCN(CCCN3CCC(n4cc(-c5cnc(N)c(C(=O)O[C@@H](C(=O)Nc6ccc(F)cc6)c6ccccc6)n5)cn4)CC3)CC2)cc1N1CCC(=O)NC1=O [TDH-447, (R)-2-((4-fluorophenyl)amino)-2-oxo-1-phenylethyl 3-amino-6-(1-(1-(3-(4-(3-(2,4-dioxotetrahydropyrimidin-1(2H)-yl)-4-methoxybenzoyl)piperazin-1-yl)propyl)piperidin-4-yl)-1H-pyrazol-4-yl)pyrazine-2-carboxylate] | – | – | 33.69% | 14.38% |
